Experimental data taken from US20100137313A1 (ASTRAZENECA AB, priority 2008, published 2010).

Molecular target: S. pneumoniae Topoisomerase IV ATPase (ParE) (Streptococcus pneumoniae serotype 4, UniProt Q59961)
Test: S. pneumoniae Topoisomerase IV ATPase inhibition
Format: biochemical
Settings: values marked * are an average of two or more data points, read-out: % Inh (13 μM) of S. pneumoniae Topoisomerase IV ATPase
Procedure, shortened: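 S. pneumoniae ParE (1.25 nM) ATPase with 160 μM ATP and 5 μg/ml sheared DNA in pH 8.0 Tris, Mg2+, DTT, Brij-35; phosphate detected by malachite green/molybdate at 650 nm. Normalised to 2% DMSO (0%) and 20 μM EDTA (100%); IC50 from 10 concentrations.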

S. pneumoniae Topoisomerase IV ATPase (ParE), sequence (Q59961 whole entry): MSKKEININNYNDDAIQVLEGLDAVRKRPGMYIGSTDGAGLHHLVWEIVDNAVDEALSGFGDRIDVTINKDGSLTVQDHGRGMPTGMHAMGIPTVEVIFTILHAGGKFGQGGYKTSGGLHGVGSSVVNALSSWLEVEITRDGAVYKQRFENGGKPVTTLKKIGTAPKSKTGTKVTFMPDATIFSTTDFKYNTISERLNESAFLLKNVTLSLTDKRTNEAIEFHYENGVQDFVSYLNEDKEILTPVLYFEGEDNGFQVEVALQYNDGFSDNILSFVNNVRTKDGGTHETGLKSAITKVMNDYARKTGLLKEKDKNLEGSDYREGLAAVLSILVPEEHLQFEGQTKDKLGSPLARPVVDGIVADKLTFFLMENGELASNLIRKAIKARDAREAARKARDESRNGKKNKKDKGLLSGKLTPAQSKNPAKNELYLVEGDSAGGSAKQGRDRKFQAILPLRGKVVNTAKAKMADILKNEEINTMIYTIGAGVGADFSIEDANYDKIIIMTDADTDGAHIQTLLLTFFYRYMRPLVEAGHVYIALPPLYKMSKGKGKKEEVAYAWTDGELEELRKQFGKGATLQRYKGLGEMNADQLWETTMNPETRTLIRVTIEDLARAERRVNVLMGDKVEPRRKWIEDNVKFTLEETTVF

## CN(C)CCCNc1nc(Nc2cc(C(F)(F)F)cc(C(F)(F)F)c2)ncc1-c1ccc(C(=O)O)s1 [Example 341, 5-(2-(3,5-bis(trifluoromethyl)phenylamino)-4-(3-(dimethylamino)propylamino)pyrimidin-5-yl) thiophene-2-carboxylic acid]
  inhibition at 13 µM: 87.2%

## COc1cc(Cl)c(C)cc1Nc1ncc(-c2ccc(C(=O)O)s2)c(NCCCN(C)C)n1 [Example 342, 5-(2-(4-chloro-2-methoxy-5-methylphenylamino)-4-(3-(dimethylamino)propylamino)pyrimidin-5-yl) thiophene-2-carboxylic acid]
  inhibition at 13 µM: 77%

## CCOC(=O)/C=C/c1cccc(-c2cnc(Nc3cc(C)c(Cl)cc3OC)nc2NCCCN(C)C)c1 [Example 343, (E)-ethyl 3-(3-(2-(4-chloro-2-methoxy-5-methylphenylamino)-4-(3-(dimethylamino)propylamino)pyrimidin-5-yl)phenyl)acrylate]
  inhibition at 13 µM: -22.3%

## COc1cc(Nc2ncc(-c3cncnc3)c(NCCCN(C)C)n2)cc(OC)c1 [Example 344, N^2-(3,5-dimethoxyphenyl)-N^4-(3-(dimethylamino)propyl)-5,5′-bi pyrimidin-2,4-diamine]
  inhibition at 13 µM: 82%

## COc1cc(Nc2ncc(-c3ccc(C(=O)O)s3)c(NCCCN(C)C)n2)cc(OC)c1 [Example 345, 5-(2-(3,5-dimethoxy-phenylamino)-4-(3-(dimethylamino)propyamino)pyrimidin-5-yl) thiophene-2-carboxylic acid]
  inhibition at 13 µM: 82.7%

## COc1cc(Nc2ncc(-c3ccc(C(=O)O)s3)c(NCCCN(C)C)n2)cc(C(F)(F)F)c1 [Example 346, 5-{4-[3-(dimethylamino)propylamino]-2-[3-methoxy-5-(trifluoromethyl)phenylamino]pyrimidin-5-yl}thiophene-2-carboxylic acid]
  inhibition at 13 µM: 79.5%

## COc1cc(Nc2ncc(-c3ccc(C(=O)O)s3)c(NCCCN(C)C)n2)c(OC)cc1Cl [Example 347, 5-(2-(4-chloro-2,5-dimethoxyphenyl-amino)-4-(3-(dimethylamino)propylamino)pyrimidin-5-yl)thiophene-2-carboxylic acid]
  inhibition at 13 µM: 42.2%

## COc1cc(Nc2ncc(-c3cccc(/C=C/C(=O)O)c3)c(N3CC(C)OC(C)C3)n2)cc(C(F)(F)F)c1 (stereo not shown) [Example 348, (E)-3-(3-(4-(2,6-dimethylmorpholino)-2-(3-methoxy-5-(trifluoromethyl)phenylamino)pyrimidin-5-yl)phenyl) acrylic acid]
  inhibition at 13 µM: 85.7%

## COc1cc(Nc2ncc(-c3cnc(OC)nc3)c(N3CC(C)OC(C)C3)n2)cc(C(F)(F)F)c1 (stereo not shown) [Example 349, 4-(2,6-dimethylmorpholino)-2′-methoxy-N-(3-methoxy-5-(trifluoromethyl)phenyl)-5,5′-bipyrimidin-2-amine]
  inhibition at 13 µM: 83.6%

## O=C(O)/C=C/c1cccc(-c2cnc(Nc3ccc(F)c(F)c3)nc2N2CCOCC2)c1 [Example 350, (E)-3-(3-(2-(3,4-difluorophenylamino)-4-morpholinopyrimidin-5-yl)phenyl)acrylic acid]
  inhibition at 13 µM: 69%

## COc1cc(Nc2ncc(-c3cccc(/C=C/C(=O)O)c3)c(N3CCOCC3)n2)cc(OC)c1 [Example 351, (E)-3-(3-(2-(3,5-dimethoxyphenylamino)-4-morpholinopyrimidin-5-yl)phenyl) acrylic acid]
  inhibition at 13 µM: 82.8%

## Fc1ccc(Nc2ncc(-c3cncnc3)c(N3CCOCC3)n2)cc1F [Example 352]
  inhibition at 13 µM: 26.7%

## COc1cc(Nc2ncc(-c3cccc(/C=C/C(=O)O)c3)c(NCCc3ccncc3)n2)cc(OC)c1 [Example 353, (E)-3-(3-(2-(3,5-dimethoxyphenyl-amino)-4-(2-(pyridin-4-yl)ethylamino)pyrimidin-5-yl)phenyl) acrylic acid]
  inhibition at 13 µM: 83.9%

## COc1cc(Nc2ncc(-c3cncnc3)c(NCCc3ccncc3)n2)cc(OC)c1 [Example 354, N^2-(3,5-dimethoxyphenyl)-N^4-(2-(pyridin-4-yl)ethyl)-5,5′-bipyrimidine-2,4-diamine]
  inhibition at 13 µM: 80.5%

## COc1cc(Nc2ncc(-c3cccc(/C=C/C(=O)O)c3)c(NCCc3ccncc3)n2)cc(C(F)(F)F)c1 [Example 355, (E)-3-(3-(2-(3-methoxy-5-(trifluoromethyl)phenylamino)-4-(2-(pyridin-4-yl)ethylamino)pyrimidin-5-yl)phenyl) acrylic acid]
  inhibition at 13 µM: 86.6%

## COc1cc(Nc2ncc(-c3cnc(OC)nc3)c(NCCc3ccncc3)n2)cc(C(F)(F)F)c1 [Example 356, 2′-methoxy-N^2-(3-methoxy-5-(trifluoromethyl)phenyl)-N^4-(2-(pyridin-4-yl)ethyl)-5,5′-bipyrimidine-2,4-diamine]
  inhibition at 13 µM: 86.5%

## COc1cc(Nc2ncc(-c3cccc(/C=C/C(=O)O)c3)c(N[C@@H]3CCOC3)n2)cc(OC)c1 [Example 357, (R,E)-3-(3-(2-(3,5-dimethoxyphenylamino)-4-(tetrahydrofuran-3-ylamino)pyrimidin-5-yl)phenyl)acrylic acid]
  inhibition at 13 µM: 85.3%

## COc1cc(Nc2ncc(-c3cncnc3)c(N[C@@H]3CCOC3)n2)cc(OC)c1 [Example 358, (R)-N^2-(3,5-dimethoxyphenyl)-N^4-(tetrahydrofuran-3-yl)-5,5′-bipyrimidine-2,4-diamine]
  inhibition at 13 µM: 63%

## O=C(O)/C=C/c1cccc(-c2cnc(Nc3ccc(F)c(Cl)c3)nc2-n2ccnc2)c1 [Example 359, (E)-3-(3-(2-(3-chloro-4-fluorophenylamino)-4-(1H-imidazol-1-yl)pyrimidin-5-yl)phenyl)acrylic acid]
  inhibition at 13 µM: 86.1%

## CONC(=O)c1cccc(-c2cnc(Nc3ccc(F)c(Cl)c3)nc2NCCCN(C)C)c1 [Example 360, 3-(2-(3-chloro-4-fluorophenylamino)-4-(3-(dimethylamino)propylamino)pyrimidin-5-yl)-N-methoxybenzamide]
  inhibition at 13 µM: 112%

## CCNC(=O)c1cccc(-c2cnc(Nc3ccc(F)c(Cl)c3)nc2NCCCN(C)C)c1 [Example 361, 3-(2-(3-chloro-4-fluorophenylamino)-4-(3-(dimethylamino)propylamino)pyrimidin-5-yl)-N-ethylbenzamide]
  inhibition at 13 µM: 94.8%

## CN(C)CCCNc1nc(Nc2ccc(F)c(Cl)c2)ncc1-c1cccc(C(=O)NCc2ccccc2)c1 [Example 362, N-benzyl-3-(2-(3-chloro-4-fluorophenylamino)-4-(3-(dimethylamino)propylamino)pyrimidin-5-yl) benzamide]
  inhibition at 13 µM: 107%

## CCNC(=O)c1ccc(-c2cnc(Nc3ccc(F)c(Cl)c3)nc2NCCCN(C)C)cc1 [Example 363, 4-(2-(3-chloro-4-fluorophenylamino)-4-(3-(dimethylamino)propylamino)pyrimidin-5-yl)-N-ethylbenzamide]
  inhibition at 13 µM: 57.9%

## CN(C)CCCNc1nc(Nc2ccc(F)c(Cl)c2)ncc1-c1ccc(C(=O)N(C)C)cc1 [Example 364, 4-(2-(3-chloro-4-fluorophenylamino)-4-(3-(dimethylamino)propylamino)pyrimidin-5-yl)-N,N-dimethylbenzamide]
  inhibition at 13 µM: 112%

## CN(C)CCCNc1nc(Nc2ccc(F)c(Cl)c2)ncc1-c1ccc(C(=O)NCc2ccccc2)cc1 [Example 365, N-benzyl-4-(2-(3-chloro-4-fluorophenylamino)-4-(3-(dimethylamino)propylamino)pyrimidin-5-yl) benzamide]
  inhibition at 13 µM: 110%
